One series concerns the target Cytochrome P450 2C9 (Homo sapiens, UniProt P11712).
Another series has as its target Cytochrome P450 2C19 (Homo sapiens, UniProt P33261). The series is described as follows: Cytochrome panel assay with activity outcomes. Panel member name: p450-cyp2c19 Compounds with AC50 equal or less than 10 uM are considered active. In kind it is functional.
Series [1] is described as follows: HEp-2 cell cytotoxicity, dose response, cytotoxicity control for RSV inhibitor project, HTS (AID 2410). In kind it is functional. Conditions: human respiratory syncytial virus.
The target in series [2] is T1, Corticotropin-releasing factor receptor 2/Corticotropin-releasing factor-binding protein (Homo sapiens, UniProt P24387+Q13324).
T1 sequence (Q13324 whole entry): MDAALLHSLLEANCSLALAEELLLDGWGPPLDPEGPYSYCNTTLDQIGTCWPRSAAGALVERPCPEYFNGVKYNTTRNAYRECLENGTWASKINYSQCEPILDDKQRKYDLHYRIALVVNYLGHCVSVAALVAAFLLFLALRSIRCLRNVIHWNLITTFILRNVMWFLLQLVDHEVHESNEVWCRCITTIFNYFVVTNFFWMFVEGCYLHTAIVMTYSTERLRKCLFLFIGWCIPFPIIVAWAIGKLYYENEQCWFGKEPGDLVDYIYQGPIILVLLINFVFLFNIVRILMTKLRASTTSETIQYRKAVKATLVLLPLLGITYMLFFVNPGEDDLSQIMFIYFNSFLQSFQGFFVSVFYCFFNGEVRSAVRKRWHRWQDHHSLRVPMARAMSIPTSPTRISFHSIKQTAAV
T1 sequence (P24387 whole entry): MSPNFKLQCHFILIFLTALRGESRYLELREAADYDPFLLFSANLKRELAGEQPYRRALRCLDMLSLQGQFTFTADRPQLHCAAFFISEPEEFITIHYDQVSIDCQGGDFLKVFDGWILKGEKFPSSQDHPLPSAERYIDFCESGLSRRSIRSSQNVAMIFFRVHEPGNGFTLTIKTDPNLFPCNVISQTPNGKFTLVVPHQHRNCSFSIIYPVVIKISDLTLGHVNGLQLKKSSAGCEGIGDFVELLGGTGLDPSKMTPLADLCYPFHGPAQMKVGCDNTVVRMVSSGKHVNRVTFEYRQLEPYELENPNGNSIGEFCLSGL
As to the kind of experiment: activators of CRF receptor 2 with binding protein – uHTS hits, confirmation (AID 602473). In kind it is functional. Conditions: read-out: EC50_Mean.

In series [3] the target is T1, Corticotropin-releasing factor receptor 2/Corticotropin-releasing factor-binding protein. As to the kind of experiment: Dose Response confirmation of uHTS hits for small molecule antagonists of the CRF-binding protein and CRF-R2 receptor complex. The format is functional. Conditions: read-out: IC50_Mean.
For a further series, the target named is Cytochrome P450 2D6 (Homo sapiens, UniProt P10635).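 Note: CYP2D6 member of a cytochrome P450 panel assay.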
Sequence of Cytochrome P450 2D6 (P10635 whole entry): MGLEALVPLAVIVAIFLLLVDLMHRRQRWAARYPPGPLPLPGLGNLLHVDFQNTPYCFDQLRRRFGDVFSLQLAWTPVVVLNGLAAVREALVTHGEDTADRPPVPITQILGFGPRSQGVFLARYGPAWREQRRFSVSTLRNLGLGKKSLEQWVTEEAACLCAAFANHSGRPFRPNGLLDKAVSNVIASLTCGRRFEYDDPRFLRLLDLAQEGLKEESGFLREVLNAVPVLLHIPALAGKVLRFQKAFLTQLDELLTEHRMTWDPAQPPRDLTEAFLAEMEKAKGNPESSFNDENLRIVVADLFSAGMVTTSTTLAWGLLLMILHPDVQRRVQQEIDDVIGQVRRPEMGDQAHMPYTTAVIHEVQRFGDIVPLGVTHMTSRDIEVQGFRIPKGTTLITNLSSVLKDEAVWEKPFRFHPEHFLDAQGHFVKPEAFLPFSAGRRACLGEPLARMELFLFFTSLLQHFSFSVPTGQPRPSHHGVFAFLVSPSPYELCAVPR
Series [4] is described as follows: inhibitors of intracellular T. cruzi replication, confirmation, NIH3T3 host cells, beta-gal luminescence (AID 2044).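 Note: intracellular parasites grown in NIH/3T3 mouse fibroblasts as host cells; luminescent beta-galactosidase reporter signal from transgenic T. cruzi replicating inside host cells; inhibitors lower the luminescence signal.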 In kind it is functional, cell-based.
The nature of series [5]: cytotoxicity toward NIH3T3 fibroblasts, dose response, counter-screen, cell-based, ATP luminescence, mouse fibroblasts (AID 2010).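 Note: cells exposed to compound for about 90 hours before reading.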 In kind it is functional. (A counterscreen serves to expose hits that act by an unwanted route or on another target.)

SMILES strings stand for the structures. Calls of active or inactive are those of the source. A value given as a limit tells only on which side of the number the result lay.

Sequence of Cytochrome P450 2C9 (P11712 whole entry): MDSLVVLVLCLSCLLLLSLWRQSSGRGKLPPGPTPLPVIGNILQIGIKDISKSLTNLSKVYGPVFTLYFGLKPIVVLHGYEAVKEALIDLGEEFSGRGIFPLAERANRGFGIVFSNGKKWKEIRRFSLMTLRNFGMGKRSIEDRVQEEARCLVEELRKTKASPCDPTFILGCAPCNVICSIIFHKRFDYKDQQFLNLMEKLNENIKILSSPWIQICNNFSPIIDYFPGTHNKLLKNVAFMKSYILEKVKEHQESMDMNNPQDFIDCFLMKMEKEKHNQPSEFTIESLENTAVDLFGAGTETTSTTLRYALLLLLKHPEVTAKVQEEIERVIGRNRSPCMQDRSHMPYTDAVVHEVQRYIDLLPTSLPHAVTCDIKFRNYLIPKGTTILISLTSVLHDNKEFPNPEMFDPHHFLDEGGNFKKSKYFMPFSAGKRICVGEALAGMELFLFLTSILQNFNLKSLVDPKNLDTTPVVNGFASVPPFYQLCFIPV
Sequence of Cytochrome P450 2C19 (P33261 whole entry): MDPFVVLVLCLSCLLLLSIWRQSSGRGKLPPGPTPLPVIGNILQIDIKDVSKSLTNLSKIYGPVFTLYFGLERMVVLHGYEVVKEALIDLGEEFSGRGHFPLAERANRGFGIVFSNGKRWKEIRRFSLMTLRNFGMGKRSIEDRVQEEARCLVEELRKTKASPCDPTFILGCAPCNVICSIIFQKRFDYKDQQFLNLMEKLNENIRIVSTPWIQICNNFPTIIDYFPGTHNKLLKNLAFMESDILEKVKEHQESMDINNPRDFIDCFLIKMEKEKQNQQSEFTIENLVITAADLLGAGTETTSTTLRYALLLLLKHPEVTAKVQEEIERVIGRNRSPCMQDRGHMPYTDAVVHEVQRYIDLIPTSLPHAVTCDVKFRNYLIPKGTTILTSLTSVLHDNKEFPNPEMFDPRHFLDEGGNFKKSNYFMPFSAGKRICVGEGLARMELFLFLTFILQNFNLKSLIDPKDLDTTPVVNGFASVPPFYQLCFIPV

As for `COc1cccc(C(=O)NCCN2CCOCC2)c1`, the AC50 at Cytochrome P450 2C9 was 3.55 µM (inconclusive); on Cytochrome P450 2C19 (read-out: AC50), 20 µM (inconclusive).

For `CC(C)C(NS(=O)(=O)c1cccs1)C(=O)Nc1nc(C(C)(C)C)cs1` (centres undefined), the half-maximal cytotoxic concentration (CC50) in series [1] was 13.5 µM (active).

Turning to `Cc1cc(NS(=O)(=O)c2c(C(=O)N3CCOCC3)c(C)n(C)c2C)ccc1Br`, the EC50 in series [2] was > 53 µM (inactive). The IC50 in series [3] was > 47.1 µM (inactive).

As for `COC1=C(C)C(=O)c2c(c(COC(N)=O)c3n2C[C@@H]2[C@@H]3N2C)C1=O` (some centres undefined), at Cytochrome P450 2C19 (read-out: AC50), the AC50 was 0.794 µM (inconclusive).

`Cc1nc2cnc(Oc3cccc(Cl)c3)nc2n(Cc2ccc(F)cc2)c1=O`: the AC50 on Cytochrome P450 2C19 (read-out: AC50) was 31.6 µM (inconclusive).

Regarding `CS(=O)(=O)N1CCC2(CC1)CN(Cc1ccccc1)C2`, the concentration at half-maximal activity (AC50) on Cytochrome P450 2D6 was 15.8 µM (inconclusive).

Turning to `C[N@+]1(CCC(=O)c2ccccc2)CC[C@H]2CC[C@H](C2)C1`, the AC50 entry at Cytochrome P450 2C19 is given as “inconclusive”.

Turning to `Cc1cc(C)c2nc(NC(=O)c3ccc4c(=O)n5c(nc4c3)CCCCC5)sc2c1`, the EC50 in series [2] is > 53 µM (inactive). Besides, the IC50 in series [3] is > 47.1 µM (inactive).

As to `CC1CCN(CCCn2c(=S)[nH]c3ccc(N4CCOCC4)cc3c2=O)CC1`, the AC50 on Cytochrome P450 2D6 is 22.4 µM (inconclusive); at Cytochrome P450 2C9, 20 µM (inconclusive); on Cytochrome P450 2C19, “inconclusive”.

For `O=C1Nc2ccccc2/C1=N/NS(=O)(=O)c1ccc(C(=O)O)cc1`, the AC50 entry at Cytochrome P450 2C19 was “inconclusive”.

For the molecule `Cc1cc(C)n(-c2ccc(Cl)c(C(=O)O)n2)n1`, the figures for the half-maximal activity concentration (AC50) on Cytochrome P450 2C9 and on Cytochrome P450 2C19 (read-out: AC50) were 4.47 µM (inconclusive) and 6.31 µM (inconclusive), respectively.

For the molecule `O=C(Nc1cccnc1)c1ccc(-c2ccc(Cl)cc2)o1`, in series [2], the EC50 was > 53 µM (inactive). The IC50 in series [3] was > 47.1 µM (inactive).

Turning to `Cc1ccccc1NC(=O)C(C)c1cccc(C(=O)c2ccccc2)c1` (centres undefined), the half-maximal activity concentration (AC50) on Cytochrome P450 2D6 was 25.1 µM (inconclusive).

With `COc1ccc(-c2cc(C(F)(F)F)nc(N3CCCCCC3)n2)cc1`, the CC50 in series [1] is 28.2 µM (active).

Take `CN(C)c1ccc(-c2nc(NCCc3cnc[nH]3)c3ccccc3n2)cc1`: the AC50 on Cytochrome P450 2C9 was 0.794 µM (inconclusive).

`COc1ccc(-c2cc(C)no2)cc1S(=O)(=O)N1CCN(C(=O)c2ccco2)CC1`: the EC50 in series [2] is > 53 µM (inactive). In series [3], the IC50 was > 47.1 µM (inactive).

Consider `Cc1nc(N2CCOCC2)c(C#N)c(C)c1Br`, for which the CC50 in series [1] is 30.6 µM (active).

On to `COc1ccc(C(=O)N2CCCCC2)cc1S(=O)(=O)Nc1ccccc1`, for which the AC50 on Cytochrome P450 2C9 was 14.1 µM (inconclusive).

As to `C#CCOc1ccc2c3c(c(=O)oc2c1)CCCC3`, the CC50 in series [1] was 43.7 µM (active).

`C=CCc1cccc(CNc2nc3ccccc3n2C)c1O`: in series [1], the CC50 was 25.9 µM (active).

`CC(C)(C)C(=O)Nc1ccc(C(=O)OC2CCCCC2)cc1`: in series [1], the CC50 was 37.3 µM (active).

Turning to `COCCNc1nc(-c2ccccc2Cl)nc2ccccc12`, the AC50 at Cytochrome P450 2C19 (read-out: AC50) was 0.0316 µM (inconclusive).

Consider `Cc1cc(N)n2ncc(-c3cccc(Br)c3)c2n1`, for which the 50% cytotoxic concentration (CC50) in series [1] is > 50 µM (active).

Regarding `O=C(CNS(=O)(=O)c1cccs1)NCCc1ccc(Cl)cc1`, the EC50 in series [2] was > 53 µM (inactive). Further, the IC50 in series [3] was > 47.1 µM (inactive).

Regarding `CC(C)(C)c1ccccc1OCCN1CCCC1`, the EC50 in series [4] is 1.35 µM (active); in series [5], > 60 µM (not active). On Cytochrome P450 2C19 (read-out: AC50), the AC50 was 35.5 µM (inconclusive).

With `CN1CCN(c2ccc([N+](=O)[O-])cc2C(=O)N2CCOCC2)CC1`, the AC50 result at Cytochrome P450 2C19 is listed as “inconclusive”.

With `C[C@H](C(=O)O)c1cccc(Oc2ccccc2)c1`, the AC50 on Cytochrome P450 2D6 was 12.6 µM (inconclusive).

For `N#Cc1cccc(-c2cncnc2NCc2cccs2)c1`, the AC50 is 31.6 µM (inconclusive) on Cytochrome P450 2D6 and 0.501 µM (inconclusive) on Cytochrome P450 2C9.

As to `COc1ccccc1OCC(=O)NCC1CCCN(C(=O)c2ccccc2C(C)=O)C1` (centres undefined), in series [2], the EC50 is > 53 µM (inactive). In series [3], the IC50 is > 47.1 µM (inactive).

Regarding `CCOP(=O)(OCC)c1cc(CC)ccc1O`, the EC50 in series [2] is > 53 µM (inactive). In series [3], the IC50 is > 47.1 µM (inactive).

In the case of `CC(=O)c1ccccc1OCCCOc1cccc2cccnc12`, the CC50 in series [1] is 21.4 µM (active).

As for `O=C(CCn1c(=O)[nH]c2ccsc2c1=O)Nc1ccc(F)c(F)c1`, the concentration at half-maximal activity (AC50) at Cytochrome P450 2C9 is 2.82 µM (inconclusive).

For the molecule `O=P(O)(COc1ccccc1)COc1ccccc1`, the AC50 at Cytochrome P450 2C9 was 14.1 µM (inconclusive); on Cytochrome P450 2C19 (read-out: AC50), 28.2 µM (inconclusive).

On to `NC(=O)[C@H]1CC2(CC(c3cccc(NC(=O)c4ccccc4)c3)=NO2)CN1C(=O)[C@H]1CCC(=O)N1` (some centres undefined), for which the AC50 entry on Cytochrome P450 2C19 is “inconclusive”.

For the molecule `CC(C)Cn1cnc2c(SCc3ccccc3)nc(N)nc21`, the EC50 in series [2] was > 53 µM (inactive). Also, in series [3], the IC50 is > 47.1 µM (inactive).

With `CC(C(=O)Nc1sccc1C(N)=O)N1C(=O)C2CC=CCC2C1=O` (centres undefined), the EC50 in series [2] is > 53 µM (inactive). In addition, the IC50 in series [3] was > 47.1 µM (inactive).

With `Cc1ccc(Nc2c(O)ncnc2O)cc1`, the EC50 in series [2] is > 53 µM (inactive). Also, the IC50 in series [3] was > 47.1 µM (inactive).

For `O=[N+]([O-])c1cc(-c2nnc(C34CC5CC(CC(C5)C3)C4)o2)cc([N+](=O)[O-])c1`, in series [1], the CC50 is > 50 µM (active). The EC50 in series [4] was 0.77 µM (active); in series [5], > 60 µM (not active).

For `Cc1cccc(CNc2ncnc3ccc(-c4ccccc4C#N)cc23)c1`, the AC50 on Cytochrome P450 2C9 was 0.501 µM (inconclusive).

The term AC50 denotes the concentration at which the activity in the assay is half-maximal. The CC50 is the concentration giving 50% cytotoxicity.

These data come from ChEMBL document CHEMBL1201862, “PubChem BioAssay data set” (2004).
